{
  "source": "ChEMBL document CHEMBL1201862",
  "about": "“PubChem BioAssay data set” (2004)",
  "key": {"[1]": {"target": "E3 ubiquitin-protein ligase Mdm2 (Homo sapiens, UniProt Q00987)", "sequence (Q00987 whole entry)": "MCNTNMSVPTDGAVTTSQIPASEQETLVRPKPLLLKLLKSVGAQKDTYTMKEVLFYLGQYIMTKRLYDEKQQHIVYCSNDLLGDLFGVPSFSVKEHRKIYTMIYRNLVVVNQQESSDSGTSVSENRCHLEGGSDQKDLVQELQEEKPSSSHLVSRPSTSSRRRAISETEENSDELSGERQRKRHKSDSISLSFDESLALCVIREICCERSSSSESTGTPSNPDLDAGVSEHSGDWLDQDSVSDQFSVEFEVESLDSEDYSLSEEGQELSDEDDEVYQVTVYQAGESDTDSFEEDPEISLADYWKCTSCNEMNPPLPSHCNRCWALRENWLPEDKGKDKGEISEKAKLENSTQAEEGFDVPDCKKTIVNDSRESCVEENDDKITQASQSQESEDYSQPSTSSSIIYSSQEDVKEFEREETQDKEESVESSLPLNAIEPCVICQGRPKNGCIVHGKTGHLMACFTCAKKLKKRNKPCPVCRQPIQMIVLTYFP", "assay": "MDM2-luc reporter signal enhancers, multi-concentration potency testing, MDM2 ubiquitin-protein ligase inhibitor program, whole-cell format, luminescence detection, 384-well microplate (AID 1394);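 note: MDM2 E3 inhibitors raise luminescence so EC50 is for signal enhancement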", "type": "functional"}, "Ephrin type-A receptor 4": {"target": "Ephrin type-A receptor 4 (Mus musculus, UniProt Q03137)", "sequence (Q03137 whole entry)": "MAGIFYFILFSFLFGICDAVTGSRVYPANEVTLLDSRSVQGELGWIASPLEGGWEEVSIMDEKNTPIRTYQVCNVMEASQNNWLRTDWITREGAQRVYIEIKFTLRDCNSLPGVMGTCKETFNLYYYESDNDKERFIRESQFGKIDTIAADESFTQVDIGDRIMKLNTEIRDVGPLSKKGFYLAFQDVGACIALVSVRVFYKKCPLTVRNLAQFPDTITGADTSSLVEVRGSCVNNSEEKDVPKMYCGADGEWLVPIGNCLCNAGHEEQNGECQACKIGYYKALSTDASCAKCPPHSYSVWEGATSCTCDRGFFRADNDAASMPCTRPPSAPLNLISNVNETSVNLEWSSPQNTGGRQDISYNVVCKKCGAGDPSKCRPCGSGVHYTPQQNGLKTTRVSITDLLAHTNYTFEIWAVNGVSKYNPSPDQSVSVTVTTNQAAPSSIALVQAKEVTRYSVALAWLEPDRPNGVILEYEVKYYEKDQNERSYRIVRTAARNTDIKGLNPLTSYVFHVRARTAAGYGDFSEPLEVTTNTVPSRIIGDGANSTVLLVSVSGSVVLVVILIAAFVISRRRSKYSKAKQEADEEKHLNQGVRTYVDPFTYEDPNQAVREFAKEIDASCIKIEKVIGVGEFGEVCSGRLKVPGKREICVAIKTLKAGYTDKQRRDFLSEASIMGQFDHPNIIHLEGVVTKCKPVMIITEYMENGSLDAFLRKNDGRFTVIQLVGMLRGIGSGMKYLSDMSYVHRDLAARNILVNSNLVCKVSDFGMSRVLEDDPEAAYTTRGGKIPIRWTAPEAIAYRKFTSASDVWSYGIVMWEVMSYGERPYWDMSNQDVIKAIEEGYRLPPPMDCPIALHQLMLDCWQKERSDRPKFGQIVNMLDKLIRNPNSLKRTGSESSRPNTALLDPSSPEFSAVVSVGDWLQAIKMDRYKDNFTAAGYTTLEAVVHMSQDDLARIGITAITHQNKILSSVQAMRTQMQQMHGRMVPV", "assay": "EphA4 ligand-binding antagonists – biochemical, colorimetric, mouse EphA4, primary screen (AID 689)", "type": "functional"}, "Cytochrome P450 3A4": {"target": "Cytochrome P450 3A4 (Homo sapiens, UniProt P08684)", "sequence (P08684 whole entry)": "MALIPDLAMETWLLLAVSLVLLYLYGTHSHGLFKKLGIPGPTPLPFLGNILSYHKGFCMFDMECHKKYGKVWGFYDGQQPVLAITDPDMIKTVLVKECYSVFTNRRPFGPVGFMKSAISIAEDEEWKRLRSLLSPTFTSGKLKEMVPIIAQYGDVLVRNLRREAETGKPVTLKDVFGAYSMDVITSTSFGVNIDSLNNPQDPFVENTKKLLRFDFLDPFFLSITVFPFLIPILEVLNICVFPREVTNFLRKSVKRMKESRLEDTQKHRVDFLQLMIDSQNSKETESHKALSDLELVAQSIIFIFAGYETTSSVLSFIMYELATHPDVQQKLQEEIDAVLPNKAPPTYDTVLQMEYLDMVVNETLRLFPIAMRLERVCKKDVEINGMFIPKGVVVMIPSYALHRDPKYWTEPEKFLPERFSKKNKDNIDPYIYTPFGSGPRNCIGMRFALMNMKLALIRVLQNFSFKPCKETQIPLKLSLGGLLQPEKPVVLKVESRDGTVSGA", "conditions": "Potency"}, "Cytochrome P450 2C19": {"target": "Cytochrome P450 2C19 (Homo sapiens, UniProt P33261)", "sequence (P33261 whole entry)": "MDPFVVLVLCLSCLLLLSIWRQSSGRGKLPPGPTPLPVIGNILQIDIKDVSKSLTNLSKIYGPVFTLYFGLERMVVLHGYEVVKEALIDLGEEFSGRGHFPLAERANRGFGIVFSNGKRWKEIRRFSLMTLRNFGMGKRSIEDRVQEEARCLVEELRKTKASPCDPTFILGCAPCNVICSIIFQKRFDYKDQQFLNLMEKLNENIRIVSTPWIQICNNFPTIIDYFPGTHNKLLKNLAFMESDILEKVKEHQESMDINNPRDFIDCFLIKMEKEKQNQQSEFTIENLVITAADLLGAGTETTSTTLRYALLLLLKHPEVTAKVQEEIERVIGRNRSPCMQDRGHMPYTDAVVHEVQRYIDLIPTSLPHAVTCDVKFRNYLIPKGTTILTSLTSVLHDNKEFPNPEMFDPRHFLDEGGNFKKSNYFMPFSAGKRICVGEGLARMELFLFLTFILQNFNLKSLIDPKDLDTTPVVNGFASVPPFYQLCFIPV", "assay": "qHTS Assay for Inhibitors and Substrates of Cytochrome P450 2C19. [Related pubchem assays: 410 ]", "type": "ADME", "conditions": "read-out: Potency"}, "[2]": {"assay": "Luminescence Cell-Based Dose Response to Identify Activators of 5'UTR Stem-Loop Driven Prion Protein mRNA Translation in H4-C Neuroglioblastoma Cells. [Related pubchem assays: 1829 (Project Summary), 1814 (Primary HTS)]", "type": "functional"}, "[3]": {"assay": "Luminescence Cell-Based Dose Response HTS to Identify Activators of Luciferase Translation or Activity in H4 […] Cells. [Related pubchem assays: 1829 (Project Summary), 1814 (Primary HTS)]", "type": "functional"}, "[4]": {"assay": "Luminescence Cell-Based Dose Confirmation to Identify Activators of 5'UTR Stem-Loop Driven Alpha-Synuclein mRNA Translation in H4 Neuroglioblastoma Cells. [Related pubchem assays: 1829 (Project Summary), 1814 (Primary HTS)]", "type": "functional"}, "[5]": {"assay": "Luminescence Cell-Based Dose Confirmation HTS to Identify Activators of 5'UTR Stem-Loop Driven Alpha-Synuclein mRNA Translation in H4 Neuroglioblastoma Cells. [Related pubchem assays: 1829 (Project Summary), 1814 (Primary HTS)]", "type": "functional"}, "[6]": {"assay": "Luminescence Cell-Based Dose Response to Identify Activators of Luciferase Translation or Activity in H4-C Neuroglioblastoma Cells. [Related pubchem assays: 1829 (Project Summary), 1814 (Primary HTS)]", "type": "functional"}, "H4": {"test_system": "H4", "assay": "Luminescence Cell-Based Dose Response HTS to Identify Activators of 5'UTR Stem-Loop Driven Prion Protein mRNA Translation in H4 Neuroglioblastoma Cells. [Related pubchem assays: 1829 (Project Summary), 1814 (Primary HTS)]", "type": "functional", "conditions": "Homo sapiens"}, "[7]": {"target": "T1, Histone-lysine N-methyltransferase NSD2 (Homo sapiens, UniProt O96028)", "T1 sequence (O96028 whole entry)": "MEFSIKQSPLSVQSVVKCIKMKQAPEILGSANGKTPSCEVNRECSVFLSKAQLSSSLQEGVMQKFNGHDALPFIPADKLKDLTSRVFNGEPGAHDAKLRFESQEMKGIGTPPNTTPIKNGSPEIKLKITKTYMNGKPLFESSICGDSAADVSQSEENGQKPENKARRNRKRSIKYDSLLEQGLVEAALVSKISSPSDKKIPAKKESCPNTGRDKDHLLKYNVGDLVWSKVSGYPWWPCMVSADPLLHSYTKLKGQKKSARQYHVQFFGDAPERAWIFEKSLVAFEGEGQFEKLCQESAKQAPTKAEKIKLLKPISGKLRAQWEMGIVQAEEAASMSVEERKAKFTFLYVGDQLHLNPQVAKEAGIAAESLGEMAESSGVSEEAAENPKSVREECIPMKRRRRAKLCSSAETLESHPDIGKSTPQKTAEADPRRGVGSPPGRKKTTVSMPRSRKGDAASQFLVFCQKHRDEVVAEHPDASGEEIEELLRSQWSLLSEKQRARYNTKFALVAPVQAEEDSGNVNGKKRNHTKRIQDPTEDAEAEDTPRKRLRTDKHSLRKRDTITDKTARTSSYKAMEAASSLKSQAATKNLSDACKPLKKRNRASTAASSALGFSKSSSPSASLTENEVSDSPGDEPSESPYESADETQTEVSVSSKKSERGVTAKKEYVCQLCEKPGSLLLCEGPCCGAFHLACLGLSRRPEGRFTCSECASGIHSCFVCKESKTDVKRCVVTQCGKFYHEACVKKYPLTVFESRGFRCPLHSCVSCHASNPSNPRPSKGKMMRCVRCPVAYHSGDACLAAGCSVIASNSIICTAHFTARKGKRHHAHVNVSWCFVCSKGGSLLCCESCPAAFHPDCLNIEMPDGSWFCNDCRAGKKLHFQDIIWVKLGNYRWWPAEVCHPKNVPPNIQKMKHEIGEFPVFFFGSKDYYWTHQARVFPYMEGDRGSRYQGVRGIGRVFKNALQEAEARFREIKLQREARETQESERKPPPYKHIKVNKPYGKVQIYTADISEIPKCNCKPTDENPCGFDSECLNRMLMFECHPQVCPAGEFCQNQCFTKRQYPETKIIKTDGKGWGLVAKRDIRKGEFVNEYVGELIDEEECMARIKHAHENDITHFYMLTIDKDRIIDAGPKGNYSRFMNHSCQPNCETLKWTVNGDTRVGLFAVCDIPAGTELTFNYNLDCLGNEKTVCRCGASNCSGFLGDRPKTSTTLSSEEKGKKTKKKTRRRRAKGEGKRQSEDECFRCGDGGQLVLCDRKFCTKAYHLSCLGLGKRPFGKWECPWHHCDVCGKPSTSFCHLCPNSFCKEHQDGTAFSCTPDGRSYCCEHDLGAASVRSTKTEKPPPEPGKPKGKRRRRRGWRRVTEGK", "type": "biochemical"}, "Genome polyprotein": {"target": "Genome polyprotein (dengue virus type 2, UniProt P29990)", "sequence (P29990 2492-3391 limits assumed)": "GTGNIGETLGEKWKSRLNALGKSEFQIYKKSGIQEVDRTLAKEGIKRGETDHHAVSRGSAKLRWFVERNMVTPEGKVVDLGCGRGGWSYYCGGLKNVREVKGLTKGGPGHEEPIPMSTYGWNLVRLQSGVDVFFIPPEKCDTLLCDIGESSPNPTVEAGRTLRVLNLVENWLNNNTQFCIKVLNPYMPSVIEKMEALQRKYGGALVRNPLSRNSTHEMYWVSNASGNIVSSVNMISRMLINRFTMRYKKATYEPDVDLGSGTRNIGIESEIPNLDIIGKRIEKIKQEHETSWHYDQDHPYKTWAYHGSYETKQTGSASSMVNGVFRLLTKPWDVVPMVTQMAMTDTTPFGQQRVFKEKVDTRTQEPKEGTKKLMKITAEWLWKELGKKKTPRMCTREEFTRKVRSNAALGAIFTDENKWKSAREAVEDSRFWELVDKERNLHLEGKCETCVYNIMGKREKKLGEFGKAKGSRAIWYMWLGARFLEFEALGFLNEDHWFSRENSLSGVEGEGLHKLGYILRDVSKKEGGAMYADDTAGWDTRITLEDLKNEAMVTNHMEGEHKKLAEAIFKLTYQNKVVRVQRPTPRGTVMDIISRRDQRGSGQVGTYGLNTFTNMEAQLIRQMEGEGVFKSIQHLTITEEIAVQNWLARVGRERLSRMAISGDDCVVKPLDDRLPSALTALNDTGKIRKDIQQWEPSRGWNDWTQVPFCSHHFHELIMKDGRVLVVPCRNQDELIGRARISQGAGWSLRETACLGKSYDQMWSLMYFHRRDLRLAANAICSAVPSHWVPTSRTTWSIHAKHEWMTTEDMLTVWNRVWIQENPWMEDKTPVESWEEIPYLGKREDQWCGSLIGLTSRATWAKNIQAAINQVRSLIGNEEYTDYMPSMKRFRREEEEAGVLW", "assay": "flavivirus cap methylation enzyme inhibition – biochemical, confirmation dose response, primary screen (AID 588689)", "type": "functional"}, "[8]": {"target": "T2, Carboxy-terminal domain RNA polymerase II polypeptide A small phosphatase 1 (Homo sapiens, UniProt Q9GZU7)", "T2 sequence (Q9GZU7 whole entry)": "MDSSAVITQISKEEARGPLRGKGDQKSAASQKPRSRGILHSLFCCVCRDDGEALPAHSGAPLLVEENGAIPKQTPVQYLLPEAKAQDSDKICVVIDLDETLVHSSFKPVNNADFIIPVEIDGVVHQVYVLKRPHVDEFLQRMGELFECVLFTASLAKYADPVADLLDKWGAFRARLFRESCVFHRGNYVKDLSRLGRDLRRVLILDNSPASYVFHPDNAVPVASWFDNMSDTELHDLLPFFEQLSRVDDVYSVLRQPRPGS", "assay": "CTDSP1 inhibitors, concentration-response, biochemical, absorbance readout, ultra-high-throughput screen actives (AID 540297)", "type": "functional"}, "[9]": {"target": "Bifunctional protein GlmU (Mycobacterium tuberculosis, UniProt P9WMN3)", "assay": "Inhibitors of Mycobacterial Glucosamine-1-phosphate acetyl transferase (GlmU). Secondary screen.", "design": "species or system Mycobacterium tuberculosis H37Rv"}, "[10]": {"assay": "NIH-3T3 fibroblast cytotoxicity, dose response, cytotoxicity control, cell-based, fluorescence, Alamar Blue, secondary assay (AID 2327);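 note: NIH-3T3 mouse fibroblasts cultured with fluconazole at 8 µg/mL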", "type": "functional"}, "[11]": {"assay": "fluconazole-exposed Candida albicans growth modulators – fluorescence, retest, confirmation (AID 2467)", "type": "functional, cell-based"}, "[12]": {"target": "Long-chain-fatty-acid--AMP ligase FadD28 (Mycobacterium tuberculosis, UniProt P9WQ59)", "sequence (P9WQ59 whole entry)": "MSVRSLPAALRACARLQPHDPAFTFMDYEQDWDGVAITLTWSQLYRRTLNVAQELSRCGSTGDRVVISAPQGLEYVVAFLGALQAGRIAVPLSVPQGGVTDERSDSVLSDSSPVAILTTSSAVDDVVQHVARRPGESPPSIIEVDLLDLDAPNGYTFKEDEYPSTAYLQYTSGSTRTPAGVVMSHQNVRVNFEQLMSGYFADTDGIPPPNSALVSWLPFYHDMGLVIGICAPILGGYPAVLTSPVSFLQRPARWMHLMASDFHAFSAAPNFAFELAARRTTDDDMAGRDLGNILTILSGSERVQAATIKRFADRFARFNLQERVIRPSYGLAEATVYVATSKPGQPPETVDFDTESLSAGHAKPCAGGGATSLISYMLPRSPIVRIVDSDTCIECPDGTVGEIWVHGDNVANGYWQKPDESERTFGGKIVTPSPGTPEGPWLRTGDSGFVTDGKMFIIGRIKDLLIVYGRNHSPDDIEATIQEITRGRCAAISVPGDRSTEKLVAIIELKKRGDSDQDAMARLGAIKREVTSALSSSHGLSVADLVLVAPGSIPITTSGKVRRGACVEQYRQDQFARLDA", "assay": "Fluorescence polarization aasay to screen for inhibitors that compete for the binding of FadD28 to a bisubstrate Measured in Biochemical System Using Plate Reader - 2147-01_Inhibitor_Dose_CherryPick_Activity.", "type": "functional, Mycobacterium tuberculosis H37Rv"}, "Large T antigen": {"target": "Large T antigen (Simian virus 40, UniProt P03070)", "sequence (P03070 whole entry)": "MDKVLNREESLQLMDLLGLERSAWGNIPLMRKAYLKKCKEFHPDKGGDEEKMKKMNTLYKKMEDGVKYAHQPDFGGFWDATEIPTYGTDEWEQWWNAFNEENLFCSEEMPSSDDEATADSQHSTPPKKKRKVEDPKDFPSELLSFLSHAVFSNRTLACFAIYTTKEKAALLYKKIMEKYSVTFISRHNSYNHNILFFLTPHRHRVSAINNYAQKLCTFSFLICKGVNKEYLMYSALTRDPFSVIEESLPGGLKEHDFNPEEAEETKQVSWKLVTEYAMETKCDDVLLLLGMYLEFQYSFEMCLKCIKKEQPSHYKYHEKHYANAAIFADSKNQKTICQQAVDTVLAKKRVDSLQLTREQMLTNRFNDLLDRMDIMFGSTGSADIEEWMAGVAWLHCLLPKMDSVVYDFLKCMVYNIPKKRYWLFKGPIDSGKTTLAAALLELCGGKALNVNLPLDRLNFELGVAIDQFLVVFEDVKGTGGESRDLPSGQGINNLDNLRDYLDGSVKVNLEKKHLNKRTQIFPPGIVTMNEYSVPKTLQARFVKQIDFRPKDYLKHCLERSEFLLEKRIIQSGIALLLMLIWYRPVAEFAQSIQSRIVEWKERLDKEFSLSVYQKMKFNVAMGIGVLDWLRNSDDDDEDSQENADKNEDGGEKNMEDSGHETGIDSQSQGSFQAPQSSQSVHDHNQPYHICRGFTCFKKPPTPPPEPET", "type": "functional, Betapolyomavirus macacae"}},
  "note": "The source made the active and inactive calls.",
  "data": [
    {"compound": "Cn1c(=O)[nH]c(=O)c2c1nc(Br)n2CCCc1ccccc1", "values": [
      {"measurement": "EC50", "setting": "[1]", "result": "46.5 µM (not active)"}
    ]},
    {"compound": "O=C1/C(=C\\c2ccc(-c3ccccc3Cl)o2)SC(=S)N1CC1CCCO1", "note": "(stereo not drawn)", "values": [
      {"measurement": "IC50", "setting": "Ephrin type-A receptor 4", "result": "0.4 µM (active)"}
    ]},
    {"compound": "COC(=O)NC(c1cccs1)C(C(C)=O)C(=O)OC", "note": "(stereo not drawn)", "values": [
      {"measurement": "AC50", "setting": "Cytochrome P450 3A4", "result": "3.98 µM (inconclusive)"},
      {"measurement": "AC50", "setting": "Cytochrome P450 2C19", "result": "3.98 µM (inconclusive)"}
    ]},
    {"compound": "CC1CCN(C(=O)CSc2nc3ccccc3s2)CC1", "values": [
      {"measurement": "EC50", "setting": "[2]", "result": "2.07 µM (active)"},
      {"measurement": "EC50", "setting": "[3]", "result": "< 0.1 µM (inconclusive)"},
      {"measurement": "EC50", "setting": "[4]", "result": "1.69 µM (active)"},
      {"measurement": "EC50", "setting": "[5]", "result": "0.185 µM (active)"},
      {"measurement": "EC50", "setting": "[6]", "result": "0.482 µM (active)"},
      {"measurement": "EC50", "setting": "H4", "result": "20.3 µM (active)"}
    ]},
    {"compound": "Cc1cccc(N2NC(=O)/C(=C/c3ccc(-c4ccc(Cl)c(C(=O)O)c4)o3)C2=O)c1", "values": [
      {"measurement": "AC50", "setting": "[7]", "result": "> 20 µM (inactive)"},
      {"measurement": "IC50", "setting": "Genome polyprotein", "result": "22.5 µM (active)"},
      {"measurement": "IC50", "setting": "[8]", "result": "3.84 µM (active)"},
      {"measurement": "IC50", "setting": "[9]", "result": "122 µM (active)"},
      {"measurement": "EC50", "setting": "[10]", "result": "> 150 µM (inactive)"},
      {"measurement": "EC50", "setting": "[11]", "result": "> 38 µM (not active)"},
      {"measurement": "AC50", "setting": "[12]", "result": "> 100 µM (inactive)"},
      {"measurement": "IC50", "setting": "Large T antigen", "result": "22.3 µM (active)"}
    ]}
  ]
}
